We go through five molecules from patent publication US20250129054A1 (Terran Biosciences Inc., priority 2022, published 2025).

SMILES strings stand for the structures. Counter-ions that a name gives are not always drawn.

This data set in a line: Serial tail vein bleed PK study in SD rats: methylone measured in plasma after IV or oral methylone or oral methylone prodrugs. It is filed as in vivo, Sprague Dawley rats. Conditions: 10 mg/kg, rat. As for the experimental part: A pharmacokinetic (PK) study was performed in three male Sprague-Dawley (SD) rats following intravenous (IV) and oral (PO) administration of methylone at 1 mg/kg (IV) and 10 mg/kg (PO) respectively, or test compounds (prodrugs of methylone) at 10 mg/kg (PO). Parent compound (methylone) was measured in plasma.
Samples were sent for method optimization and measurement of parent compound (methylone) via unique calibration lines and following acceptance QC's. Dose formulation concentrations were also measured, and PK parameters were determined (Cmax (ng/mL), Tmax (hr), Cl (ml/min/kg), Vdss (L/kg), t½(hr), AUC0-t (ng/mL*hr), AUC0-inf (ng/mL*hr), MIRT (hr), Bioavailability ([…]) where warranted) using WinNon Lin software. Data (including bioanalytical results and assay performance) were reported in a tabulated format.
Formulation for PO Administration: For PO dosing, the prodrug was formulated in 10% DMSO/20% PEG400/70% water to a concentration of 2 mg free metabolite material/mL. This provided a dose of 10 mg free metabolite/kg when the prodrug was administered PO in 5 mL/kg dosing volumes.
Formulation for IV administration: For IV dosing, rac-methylone was formulated as solution in saline to a concentration of 0.5 mg free metabolite material/mL. This provided a dose of 1 mg free metabolite/kg when administered IV in 2 mL/kg dosing volumes.
The pharmacokinetic properties of the synthesized methylone prodrugs after oral administration in a rat model were assessed. The concentration of methylone was measured in each rat at various sampling timepoints after IV or oral administration of rac-methylone or the synthesized methylone prodrugs to rats.
Dose formulations were made at equivalent concentrations of active compound (methylone) adjusted for molecular weight of the compounds. The synthesized methylone prodrugs or analogs were dosed at 10 mg/kg oral (PO) nominal dose. Nominal doses were used in PK parameter determinations. The parent compound (methylone) was dosed at 1 mg/kg intravenous (IV) and 10 mg/kg (PO).

Where [1] appears, read: 0.500 h after oral dosing of the prodrug, individual animals.
The mark [2] stands for this setting: 0.500 h after oral dosing of the prodrug, mean.
Where [3] appears, read: 1.00 h after oral dosing of the prodrug, individual animals.
The mark [4] stands for this setting: 1.00 h after oral dosing of the prodrug, mean.
Setting [5] is: 2.00 h after oral dosing of the prodrug, individual animals.
[6] abbreviates: 2.00 h after oral dosing of the prodrug, mean.
[7] abbreviates: 4.00 h after oral dosing of the prodrug, individual animals.
The mark [8] stands for this setting: 4.00 h after oral dosing of the prodrug, mean.
The mark [9] stands for this setting: 7.00 h after oral dosing of the prodrug, individual animals.
The mark [10] stands for this setting: 7.00 h after oral dosing of the prodrug, mean.
Where [11] appears, read: 24.0 h after oral dosing of the prodrug, individual animals.
The mark [12] stands for this setting: 24.0 h after oral dosing of the prodrug, mean.

For `CCOC(=O)N(C)C(C)C(=O)c1ccc2c(c1)OCO2` (stereo not drawn) [Compound 1A, Ethyl N-[2-(1,3-benzodioxol-5-yl)-1-methyl-2-oxo-ethyl]-N-methyl-carbamate], the “Plasma Concentrations of metabolite methylone” value (“Plasma Concentrations” for short) is, setting by setting: under setting [1], “BLQ (Below Lower Limit of Quantification (0.5 ng/mL))”; under setting [2], “BLQ (Below Lower Limit of Quantification (0.5 ng/mL))”; under setting [3], “BLQ (Below Lower Limit of Quantification (0.5 ng/mL))”; under setting [4], “BLQ (Below Lower Limit of Quantification (0.5 ng/mL))”; under setting [5], “BLQ (Below Lower Limit of Quantification (0.5 ng/mL))”; under setting [6], “BLQ (Below Lower Limit of Quantification (0.5 ng/mL))”. Moreover, the “Plasma Concentrations” value reads like this: under setting [7], “BLQ (Below Lower Limit of Quantification (0.5 ng/mL))”; under setting [8], “BLQ (Below Lower Limit of Quantification (0.5 ng/mL))”; under setting [9], “BLQ (Below Lower Limit of Quantification (0.5 ng/mL))”; under setting [10], “BLQ (Below Lower Limit of Quantification (0.5 ng/mL))”; under setting [11], “BLQ (Below Lower Limit of Quantification (0.5 ng/mL))”; under setting [12], “BLQ (Below Lower Limit of Quantification (0.5 ng/mL))”.
Turning to `CC1C(c2ccc3c(c2)OCO3)=N[C@@H](CCCCN)C(=O)N1C` (stereo partly drawn) [Compound 4A, dihydrochloride], the “Plasma Concentrations” value was “BLQ (Below Lower Limit of Quantification (0.5 ng/mL))” under setting [1]; “BLQ (Below Lower Limit of Quantification (0.5 ng/mL))” under setting [2]; “BLQ (Below Lower Limit of Quantification (0.5 ng/mL))” under setting [3]; “BLQ (Below Lower Limit of Quantification (0.5 ng/mL))” under setting [4]; “BLQ (Below Lower Limit of Quantification (0.5 ng/mL))” under setting [5]; “BLQ (Below Lower Limit of Quantification (0.5 ng/mL))” under setting [6]. The “Plasma Concentrations” value under setting [7] is “BLQ (Below Lower Limit of Quantification (0.5 ng/mL))”; the “Plasma Concentrations” value under setting [8] was “BLQ (Below Lower Limit of Quantification (0.5 ng/mL))”; the “Plasma Concentrations” value under setting [9] was “BLQ (Below Lower Limit of Quantification (0.5 ng/mL))”; the “Plasma Concentrations” value under setting [10] is given as “BLQ (Below Lower Limit of Quantification (0.5 ng/mL))”; the “Plasma Concentrations” value under setting [11] is recorded as “BLQ (Below Lower Limit of Quantification (0.5 ng/mL))”; the “Plasma Concentrations” value under setting [12] is “BLQ (Below Lower Limit of Quantification (0.5 ng/mL))”.
Take `CC(C(=O)c1ccc2c(c1)OCO2)N(C)C(=O)CCCC(=O)OC(C)(C)C` (stereo not drawn) [Compound 3C, tert-Butyl 4-{[2-(2H-1,3-benzodioxol-5-yl)-1-methyl-2-oxo-ethyl]-N-methylcarbamoyl}butyrate]: the “Plasma Concentrations” value reads like this: under setting [1], “BLQ (Below Lower Limit of Quantification (0.5 ng/mL))”; under setting [2], “BLQ (Below Lower Limit of Quantification (0.5 ng/mL))”; under setting [3], “BLQ (Below Lower Limit of Quantification (0.5 ng/mL))”; under setting [4], “BLQ (Below Lower Limit of Quantification (0.5 ng/mL))”; under setting [5], “BLQ (Below Lower Limit of Quantification (0.5 ng/mL))”; under setting [6], “BLQ (Below Lower Limit of Quantification (0.5 ng/mL))”. Moreover, the “Plasma Concentrations” value under setting [7] is given as “BLQ (Below Lower Limit of Quantification (0.5 ng/mL))”; the “Plasma Concentrations” value under setting [8] is listed as “BLQ (Below Lower Limit of Quantification (0.5 ng/mL))”; the “Plasma Concentrations” value under setting [9] was “BLQ (Below Lower Limit of Quantification (0.5 ng/mL))”; the “Plasma Concentrations” value under setting [10] is “BLQ (Below Lower Limit of Quantification (0.5 ng/mL))”; the “Plasma Concentrations” value under setting [11] is reported as “BLQ (Below Lower Limit of Quantification (0.5 ng/mL))”; the “Plasma Concentrations” value under setting [12] is listed as “BLQ (Below Lower Limit of Quantification (0.5 ng/mL))”.
For `COCCOC(=O)N(C)C(C)C(=O)c1ccc2c(c1)OCO2` (stereo not drawn) [PE, 2-Methoxyethyl N-[2-(1,3-benzodioxol-5-yl)-1-methyl-2-oxo-ethyl]-N-methyl-carbamate], the “Plasma Concentrations” value was “BLQ (Below Lower Limit of Quantification (0.5 ng/mL))” under setting [1]; “BLQ (Below Lower Limit of Quantification (0.5 ng/mL))” under setting [2]; “BLQ (Below Lower Limit of Quantification (0.5 ng/mL))” under setting [3]; “BLQ (Below Lower Limit of Quantification (0.5 ng/mL))” under setting [4]; “BLQ (Below Lower Limit of Quantification (0.5 ng/mL))” under setting [5]; “BLQ (Below Lower Limit of Quantification (0.5 ng/mL))” under setting [6]. For the same molecule, the “Plasma Concentrations” value reads like this: under setting [7], “BLQ (Below Lower Limit of Quantification (0.5 ng/mL))”; under setting [8], “BLQ (Below Lower Limit of Quantification (0.5 ng/mL))”; under setting [9], “BLQ (Below Lower Limit of Quantification (0.5 ng/mL))”; under setting [10], “BLQ (Below Lower Limit of Quantification (0.5 ng/mL))”; under setting [11], “BLQ (Below Lower Limit of Quantification (0.5 ng/mL))”; under setting [12], “BLQ (Below Lower Limit of Quantification (0.5 ng/mL))”.
As for `CC(C(=O)c1ccc2c(c1)OCO2)N(C)C(=O)[C@H](CCCCNC(=O)OC(C)(C)C)NC(=O)OC(C)(C)C` (stereo partly drawn) [Compound 3E, tert-Butyl N-[(5S)-6-[[2-(1,3-benzodioxol-5-yl)-1-methyl-2-oxo-ethyl]-methyl-amino]-5-(tert-butoxycarbonylamino)-6-oxo-hexyl]carbamate], the “Plasma Concentrations” value under setting [1] is “BLQ (Below Lower Limit of Quantification (0.5 ng/mL))”; the “Plasma Concentrations” value under setting [2] is reported as “BLQ (Below Lower Limit of Quantification (0.5 ng/mL))”; the “Plasma Concentrations” value under setting [3] is “BLQ (Below Lower Limit of Quantification (0.5 ng/mL))”; the “Plasma Concentrations” value under setting [4] was “BLQ (Below Lower Limit of Quantification (0.5 ng/mL))”; the “Plasma Concentrations” value under setting [5] is given as “BLQ (Below Lower Limit of Quantification (0.5 ng/mL))”; the “Plasma Concentrations” value under setting [6] is reported as “BLQ (Below Lower Limit of Quantification (0.5 ng/mL))”. The “Plasma Concentrations” value under setting [7] is “BLQ (Below Lower Limit of Quantification (0.5 ng/mL))”; the “Plasma Concentrations” value under setting [8] is recorded as “BLQ (Below Lower Limit of Quantification (0.5 ng/mL))”; the “Plasma Concentrations” value under setting [9] is listed as “BLQ (Below Lower Limit of Quantification (0.5 ng/mL))”; the “Plasma Concentrations” value under setting [10] is “BLQ (Below Lower Limit of Quantification (0.5 ng/mL))”; the “Plasma Concentrations” value under setting [11] was “BLQ (Below Lower Limit of Quantification (0.5 ng/mL))”; the “Plasma Concentrations” value under setting [12] is given as “BLQ (Below Lower Limit of Quantification (0.5 ng/mL))”.
